Here are results for 31 compounds from patent publication US10961200B2, “Small molecule inhibitors of lactate dehydrogenase and methods of use thereof” (THE UNITED STATES OF AMERICA, AS REPRESENTED BY THE …, priority 2014, dated 2021).

Read-outs that look alike come from different tables or passages of the source.

For one experiment, the target named is Human LDHA (Homo sapiens (Human), UniProt P00338). In words: human LDHA primary biochemical assay (resazurin/diaphorase coupled, fluorescence). The source says:
Test compounds were placed in a Greiner Bio-One (Monroe, N.C.) 1536-well black solid bottom assay plate. 200 millimolar (mM) Tris HCl, pH 7.4, 100 micromolar […] EDTA and 0.01% TWEEN-20™, final concentration, was used as the assay buffer. The LDHA reagent was 2 nanomolar (nM) Human LDHA (Meridian Life Science, Inc., Memphis, Tenn.), final concentration, in assay buffer.
On the technique in general: Alamar Blue is a resazurin reagent that responds to reducing activity.

The next experiment deals with MiaPaCa2 cells. As to the kind of experiment: cell-based HT lactate assay, colorimetric/fluorometric detection (inhibition of lactate production). Particulars: class symbols, 0 to 3 pluses.
The mark [1] stands for this setting: LDHA inhibitory activity, activity level based on IC50 (Table 7).
The mark [2] stands for this setting: LDHA inhibitory activity, assay of Example 1, activity level classes.
Where [3] appears, read: read-out: Inhibitory activity IC50.

As a reminder, the IC50 is the midpoint of a concentration-inhibition curve. On to `NS(=O)(=O)c1ccc(Cc2c(-c3ccc(F)c(C(=O)N4CCCC4)c3)nn(-c3nc(C(=O)O)cs3)c2CC2CC2)cc1F` [Compound 545, 2-(5-(cyclopropylmethyl)-3-(4-fluoro-3-(pyrrolidine-1-carbonyl)phenyl)-4-(3-fluoro-4-sulfamoylbenzyl)-1H-pyrazol-1-yl)thiazole-4-carboxylic acid], for which the half-maximal inhibitory concentration (IC50) against Human LDHA (setting [1]) is less than 0.1 µM; in the experiment on MiaPaCa2 cells (Homo sapiens, MIA PaCa-2), 10 to 57 µM.

With `Cc1ccc(-c2cc(-c3nn(-c4nc(C(=O)O)cs4)c(CC4CC4)c3Cc3ccc(S(N)(=O)=O)cc3F)ccc2F)cc1` [Compound 307], the IC50 against Human LDHA (setting [2]) is less than 0.1 µM; in the experiment on MiaPaCa2 cells it was less than 1 µM.

Turning to `N[S+](=O)([O-])c1ccc(Cc2c(-c3ccc(F)c(C#CCN4CCCC4)c3)nn(-c3nc(C(=O)O)cs3)c2CC2CC2)cc1F` [Compound 417], the IC50 is less than 0.1 µM on Human LDHA (setting [1]) and 1 to 10 µM with MiaPaCa2 cells.

As to `NS(=O)(=O)c1ccc(Cc2c(-c3ccc(F)c(OCC4CC4(F)F)c3)nn(-c3nc(C(=O)O)cs3)c2CC2CC2)cc1F` (centres unmarked) [Compound 400], the IC50 is less than 0.1 µM against Human LDHA (setting [1]) and less than 1 µM in the experiment with MiaPaCa2 cells.

On to `Cc1noc(C)c1-c1cc(-c2nn(-c3nc(C(=O)O)cs3)c(CC3CC3)c2Cc2ccc(S(N)(=O)=O)cc2F)ccc1F` [Compound 215, 2-(5-(cyclopropylmethyl)-3-(3-(3,5-dimethylisoxazol-4-yl)-4-fluorophenyl)-4-(2-fluoro-4-sulfamoylbenzyl)-1H-pyrazol-1-yl)thiazole-4-carboxylic acid], for which the IC50 at Human LDHA (setting [3]) is less than 0.1 µM; with MiaPaCa2 cells (Homo sapiens, MIA PaCa-2) it was 10 to 57 µM.

Consider `COc1cccc(-c2cc(-c3nn(-c4nc(C(=O)O)cs4)c(CC4CC4)c3Cc3ccc(S(N)(=O)=O)cc3)ccc2F)c1` [Compound 237], for which the figures for the half-maximal inhibitory concentration (IC50) at Human LDHA (setting [2]) and with MiaPaCa2 cells were less than 0.1 µM and 1 to 10 µM, respectively.

As to `C#Cc1cc(-c2nn(-c3nc(C(=O)O)cs3)c(CC3CC3)c2Cc2ccc(S(N)(=O)=O)c(F)c2)ccc1F` [Compound 410], the IC50 is less than 0.1 µM at Human LDHA (setting [1]) and less than 1 µM in the experiment on MiaPaCa2 cells.

Regarding `CC#Cc1cc(-c2nn(-c3nc(C(=O)OCC)cs3)c(CC3CC3)c2Cc2ccc(S(N)(=O)=O)c(F)c2)ccc1F` [Compound 420], the half-inhibitory concentration (IC50) against Human LDHA (setting [1]) is 1 to 57 µM; in the experiment with MiaPaCa2 cells, more than 57 µM.

`Cn1c(C(=O)O)cnc1-n1cc(Cc2ccc(S(N)(=O)=O)cc2)c(-c2ccccc2)n1` [Compound 212, 1-methyl-2-(3-phenyl-4-(4-sulfamoylbenzyl)-1H-pyrazol-1-yl)-1H-imidazole-5-carboxylic acid]: the 50% inhibitory concentration (IC50) against Human LDHA (setting [2]) is more than 57 µM; in the experiment on MiaPaCa2 cells (Homo sapiens, MIA PaCa-2) it was more than 57 µM.

On to `NS(=O)(=O)c1ccc(Cc2c(-c3ccc(F)c(C#CCN4CCOCC4)c3)nn(-c3nc(C(=O)O)cs3)c2CC2CC2)cc1F` [Compound 263], for which the IC50 at Human LDHA (setting [2]) is less than 0.1 µM; in the experiment with MiaPaCa2 cells it was 10 to 57 µM.

Take `Cc1ccc(-c2cc(-c3nn(-c4nc(C(=O)O)cs4)c(CC4CC4)c3Cc3ccc(S(N)(=O)=O)c(F)c3)ccc2F)s1` [Compound 227, 2-(5-(cyclopropylmethyl)-3-(4-fluoro-3-(5-methylthiophen-2-yl)phenyl)-4-(3-fluoro-4-sulfamoylbenzyl)-1H-pyrazol-1-yl)thiazole-4-carboxylic acid]: the half-inhibitory concentration (IC50) is less than 0.1 µM at Human LDHA (setting [3]) and less than 1 µM in the experiment with MiaPaCa2 cells (Homo sapiens, MIA PaCa-2).

As to `NS(=O)(=O)c1ccc(Cc2c(-c3cccc(Oc4ccccc4)c3)nn(-c3nc(C(=O)O)cs3)c2CC2CC2)cc1` [Compound 503, 2-(5-(cyclopropylmethyl)-3-(3-phenoxyphenyl)-4-(4-sulfamoylbenzyl)-1H-pyrazol-1-yl)thiazole-4-carboxylic Acid], the half-inhibitory concentration (IC50) at Human LDHA (setting [1]) was less than 0.1 µM; in the experiment on MiaPaCa2 cells (Homo sapiens, MIA PaCa-2), 1 to 10 µM.

For `NS(=O)(=O)c1ccc(Cc2c(-c3ccc(F)c(Oc4ccccc4)c3)nn(-c3nc(C(=O)O)cs3)c2CC2CC2)cc1` [Compound 508, 2-(5-(cyclopropylmethyl)-3-(4-fluoro-3-phenoxyphenyl)-4-(4-sulfamoylbenzyl)-1H-pyrazol-1-yl)thiazole-4-carboxylic Acid], the IC50 was less than 0.1 µM against Human LDHA (setting [1]) and 1 to 10 µM with MiaPaCa2 cells (Homo sapiens, MIA PaCa-2).

For the compound `NS(=O)(=O)c1ccc(Cc2cn(-c3nc(C(=O)O)cs3)nc2-c2ccc(F)c(-c3cccc(F)c3)c2)cc1` [Compound 458, 2-(3-(3′,6-difluoro-[1,1′-biphenyl]-3-yl)-4-(4-sulfamoylbenzyl)-1H-pyrazol-1-yl)thiazole-4-carboxylic acid], the half-inhibitory concentration (IC50) against Human LDHA (setting [1]) is less than 0.1 µM; in the experiment with MiaPaCa2 cells (Homo sapiens, MIA PaCa-2), 1 to 10 µM.

Turning to `NS(=O)(=O)c1ccc(Cc2c(-c3ccc(F)c(C#CC4CCCC4)c3)nn(-c3nc(C(=O)O)cs3)c2CC2CC2)cc1F` [Compound 258], the IC50 was less than 0.1 µM at Human LDHA (setting [2]) and less than 1 µM in the experiment on MiaPaCa2 cells.

`NS(=O)(=O)c1ccc(Cc2c(-c3cccc(Oc4ccc(F)cc4)c3)nn(-c3nc(C(=O)O)cs3)c2CC2CC2)cc1` [Compound 507, 2-(5-(cyclopropylmethyl)-3-(3-(4-fluorophenoxy)phenyl)-4-(4-sulfamoylbenzyl)-1H-pyrazol-1-yl)thiazole-4-carboxylic Acid]: the half-inhibitory concentration (IC50) against Human LDHA (setting [1]) is less than 0.1 µM; with MiaPaCa2 cells (Homo sapiens, MIA PaCa-2), 1 to 10 µM.

For the compound `N[S+](=O)([O-])c1ccc(Cc2c(-c3ccc(F)c(C#CCC4CCCC4)c3)nn(-c3nc(C(=O)O)cs3)c2CC2CC2)cc1F` [Compound 411], the IC50 was less than 0.1 µM against Human LDHA (setting [1]) and less than 1 µM in the experiment with MiaPaCa2 cells.

Regarding `Cn1cc(-c2cc(-c3nn(-c4nc(C(=O)O)cs4)c(CC4CC4)c3Cc3ccc(S(N)(=O)=O)cc3F)ccc2F)cn1` [Compound 214, 2-(5-(cyclopropylmethyl)-3-(4-fluoro-3-(1-methyl-1H-pyrazol-4-yl)phenyl)-4-(2-fluoro-4-sulfamoylbenzyl)-1H-pyrazol-1-yl)thiazole-4-carboxylic acid], the half-maximal inhibitory concentration (IC50) was less than 0.1 µM at Human LDHA (setting [3]) and 1 to 10 µM with MiaPaCa2 cells (Homo sapiens, MIA PaCa-2).

For the compound `CC#Cc1cccc(-c2nn(-c3ncc(C(=O)OCC)s3)c(CC3CC3)c2Cc2ccc(S(N)(=O)=O)c(F)c2)c1` [Compound 269], the half-inhibitory concentration (IC50) is 1 to 57 µM at Human LDHA (setting [2]) and less than 1 µM in the experiment on MiaPaCa2 cells.

Regarding `N[S+](=O)([O-])c1ccc(Cc2c(-c3cccc(OC4CCCC4)c3)nn(-c3nc(C(=O)O)cs3)c2CC2CC2)c(F)c1` [Compound 338], the IC50 was less than 0.1 µM on Human LDHA (setting [1]) and less than 1 µM with MiaPaCa2 cells (Homo sapiens, MIA PaCa-2).

With `NS(=O)(=O)c1ccc(Cc2c(-c3ccc(F)c(OCC4CCOC4)c3)nn(-c3nc(C(=O)O)cs3)c2CC2CC2)cc1F` (centres unmarked) [Compound 470, 2-(5-(cyclopropylmethyl)-3-(4-fluoro-3-((tetrahydrofuran-3-yl)methoxy)phenyl)-4-(3-fluoro-4-sulfamoylbenzyl)-1H-pyrazol-1-yl)thiazole-4-carboxylic acid], the IC50 on Human LDHA (setting [1]) is less than 0.1 µM; with MiaPaCa2 cells (Homo sapiens, MIA PaCa-2), 1 to 10 µM.

Turning to `Cc1ccc(-c2cc(-c3nn(-c4nc(C(=O)O)cs4)c(CC4CC4)c3Cc3ccc(S(N)(=O)=O)cc3)ccc2F)cc1` [Compound 284], the IC50 was less than 0.1 µM against Human LDHA (setting [2]) and less than 1 µM in the experiment with MiaPaCa2 cells.

With `N[S+](=O)([O-])c1ccc(Cc2c(-c3cccc(-c4cccc(F)c4)c3)nn(-c3nc(C(=O)O)cs3)c2CC2CC2)cc1` [Compound 370], the figures for the 50% inhibitory concentration (IC50) against Human LDHA (setting [1]) and in the experiment with MiaPaCa2 cells were less than 0.1 µM and 1 to 10 µM, respectively.

For the compound `Cc1c(Cc2ccc(S(N)(=O)=O)cc2)c(-c2ccccc2)nn1-c1nc(C(=O)O)cs1` [Compound 47, 2-(5-methyl-3-phenyl-4-(4-sulfamoylbenzyl)-1H-pyrazol-1-yl)thiazole-4-carboxylic acid], the IC50 is less than 0.1 µM against Human LDHA (setting [2]) and more than 57 µM in the experiment with MiaPaCa2 cells (Homo sapiens, MIA PaCa-2).

For `NS(=O)(=O)c1ccc(Cc2c(-c3cccc(OCc4ccccc4)c3)nn(-c3nc(C(=O)O)cs3)c2C2CC2)cc1` [Compound 501, 2-(3-(3-(benzyloxy)phenyl)-5-cyclopropyl-4-(4-sulfamoylbenzyl)-1H-pyrazol-1-yl)thiazole-4-carboxylic acid], the IC50 was less than 0.1 µM at Human LDHA (setting [1]) and 1 to 10 µM in the experiment on MiaPaCa2 cells (Homo sapiens, MIA PaCa-2).

`Cc1noc(C)c1-c1cc(-c2nn(-c3nc(C(=O)O)cs3)c(CC3CC3)c2Cc2ccc(S(N)(=O)=O)c(F)c2)ccc1F` [Compound 219, 2-(5-(cyclopropylmethyl)-3-(3-(3,5-dimethylisoxazol-4-yl)-4-fluorophenyl)-4-(3-fluoro-4-sulfamoylbenzyl)-1H-pyrazol-1-yl)thiazole-4-carboxylic acid]: the IC50 is less than 0.1 µM on Human LDHA (setting [3]) and 1 to 10 µM with MiaPaCa2 cells (Homo sapiens, MIA PaCa-2).

Take `NS(=O)(=O)c1ccc(Cc2c(-c3cccc(Oc4ccccc4)c3)nn(-c3nc(C(=O)O)cs3)c2C2CC2)cc1` [Compound 502, 2-(5-cyclopropyl-3-(3-phenoxyphenyl)-4-(4-sulfamoylbenzyl)-1H-pyrazol-1-yl)thiazole-4-carboxylic acid]: the half-inhibitory concentration (IC50) against Human LDHA (setting [1]) is less than 0.1 µM; in the experiment on MiaPaCa2 cells (Homo sapiens, MIA PaCa-2) it was 1 to 10 µM.

Regarding `NS(=O)(=O)c1ccc(Cc2c(-c3ccc(F)c(OCc4ccc(F)cc4)c3)nn(-c3nc(C(=O)O)cs3)c2CC2CC2)cc1` [Compound 527, 2-(5-(cyclopropylmethyl)-3-(4-fluoro-3-((4-fluorobenzyl)oxy)phenyl)-4-(4-sulfamoylbenzyl)-1H-pyrazol-1-yl)thiazole-4-carboxylic Acid], the IC50 against Human LDHA (setting [1]) was less than 0.1 µM; in the experiment with MiaPaCa2 cells (Homo sapiens, MIA PaCa-2), 1 to 10 µM.

Take `NS(=O)(=O)c1ccc(Cc2c(-c3cccc(-c4cccc(F)c4)c3)nn(-c3nc(C(=O)O)cs3)c2CC2CC2)cc1F` [Compound 365]: the IC50 against Human LDHA (setting [1]) was less than 0.1 µM; with MiaPaCa2 cells, less than 1 µM.

In the case of `NS(=O)(=O)c1ccc(Cc2c(-c3ccc(F)c(C(F)(F)F)c3)nn(-c3nc(C(=O)O)cs3)c2CC2CC2)cc1F` [Compound 542, 2-(5-(cyclopropylmethyl)-3-(4-fluoro-3-(trifluoromethyl)phenyl)-4-(3-fluoro-4-sulfamoylbenzyl)-1H-pyrazol-1-yl)thiazole-4-carboxylic acid], the IC50 is less than 0.1 µM against Human LDHA (setting [1]) and 1 to 10 µM in the experiment on MiaPaCa2 cells (Homo sapiens, MIA PaCa-2).

With `N[S+](=O)([O-])c1ccc(Cc2c(-c3ccc(F)c(-c4ccccc4F)c3)nn(-c3nc(C(=O)O)cs3)c2CC2CC2)cc1F` [Compound 366], the IC50 against Human LDHA (setting [1]) is less than 0.1 µM; in the experiment with MiaPaCa2 cells, less than 1 µM.
